The record followed here is ChEMBL document CHEMBL3769356, “Rational design in search for 5-phenylhydantoin selective 5-HT7R antagonists. Molecular modeling, synthesis and biological evaluation” (Eur J Med Chem, 2016).

Data set [1] addresses T1, 5-hydroxytryptamine receptor 1A (Homo sapiens, UniProt P08908).
T1 sequence (P08908 whole entry): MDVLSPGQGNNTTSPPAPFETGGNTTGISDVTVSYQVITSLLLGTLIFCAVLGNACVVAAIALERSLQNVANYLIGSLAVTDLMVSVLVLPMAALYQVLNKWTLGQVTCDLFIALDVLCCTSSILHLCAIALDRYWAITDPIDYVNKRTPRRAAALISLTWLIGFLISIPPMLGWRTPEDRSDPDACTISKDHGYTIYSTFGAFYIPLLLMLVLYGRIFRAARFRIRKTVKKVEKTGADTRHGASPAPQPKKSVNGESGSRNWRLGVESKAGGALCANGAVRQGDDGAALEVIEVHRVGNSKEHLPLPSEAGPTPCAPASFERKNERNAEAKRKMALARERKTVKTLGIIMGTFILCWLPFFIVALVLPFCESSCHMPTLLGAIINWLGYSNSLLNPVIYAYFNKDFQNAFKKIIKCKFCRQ
As to the kind of experiment: Displacement of [3H]-8-OH-DPAT from human 5-HT1A receptor expressed in HEK293 cells. Type of data set: cell-based. Background: In a radioligand displacement assay an active substance lowers the binding of a labelled ligand.

Data set [2] is filed under the species Homo sapiens. As to the kind of experiment: Selectivity ratio of Ki for human dopamine D2L receptor to Ki for human 5-HT7 receptor.
In the next data set the target is D(2) dopamine receptor (Homo sapiens, UniProt P14416). Kind of data set: Displacement of [3H]-Raclopride from human dopamine D2L receptor expressed in HEK293 cells. Type of data set: cell-based.
For data set [3], the species on record is Homo sapiens. As to the kind of experiment: Selectivity ratio of Ki for human 5-HT1A receptor to Ki for human 5-HT7 receptor.
Data set [4] addresses T2, 5-hydroxytryptamine receptor 7 (Homo sapiens, UniProt P34969). As to the kind of experiment: Antagonist activity at human 5-HT7 receptor expressed in HEK293 cells assessed as inhibition of 5-CT-induced cAMP production at 10 uM preincubated for 15 mins followed by 5-CT addition measured after 15 mins by HTRF assay. Type of data set: functional, cell-based. Background: Cyclic AMP is a second messenger, typically raised through Gs and lowered through Gi signalling.

Data set [5] addresses T2, 5-hydroxytryptamine receptor 7. As to the kind of experiment: Displacement of [3H]-5-CT from human 5-HT7 receptor expressed in HEK293 cells. Type of data set: cell-based.
The target is the same in data set [6]. As to the kind of experiment: Agonist activity at human 5-HT7 receptor expressed in HEK293 cells assessed as increase in cAMP level at 10 uM after 15 mins by HTRF assay. Type of data set: functional, cell-based.
For data set [7] the target is unchanged. In kind it is functional, cell-based, HEK293.
The next data set has as its target CYP3A4 (Homo sapiens, UniProt P08684). Kind of data set: Inhibition of recombinant human CYP3A4 assessed as remaining activity at 25 uM by luminescence -based microplate reader assay. In kind it is ADME. As to conditions: read-out: Activity.
For data set [8], the system named is Liver microsome. As to the kind of experiment: Drug level in recombinant human liver microsomes treated with 5-(4-fluorophenyl)-3-(2-hydroxy-3-(4-(2-methoxyphenyl)piperazin-1-yl)propyl)-5-methylimidazolidine-2,4-dione at 50 uM after 120 mins by UPLC-MS/MS analysis. To be noted: 2 h. Type of data set: ADME.
Data set [9] has as its system Liver microsome. Kind of data set: Retention time of the compound in recombinant human liver microsomes treated with 5-(4-fluorophenyl)-3-(2-hydroxy-3-(4-(2-methoxyphenyl)piperazin-1-yl)propyl)-5-methylimidazolidine-2,4-dione at 50 uM after 120 mins by UPLC-MS/MS analysis. Type of data set: ADME. As to conditions: 2 h. On the technique in general: Microsomes from liver hold many membrane-bound enzymes, among them those of drug oxidation.

Activity calls are given as the source filed them. The calls are words filed in the database; no cut-off is given here.

Chain of D(2) dopamine receptor (P14416 whole entry): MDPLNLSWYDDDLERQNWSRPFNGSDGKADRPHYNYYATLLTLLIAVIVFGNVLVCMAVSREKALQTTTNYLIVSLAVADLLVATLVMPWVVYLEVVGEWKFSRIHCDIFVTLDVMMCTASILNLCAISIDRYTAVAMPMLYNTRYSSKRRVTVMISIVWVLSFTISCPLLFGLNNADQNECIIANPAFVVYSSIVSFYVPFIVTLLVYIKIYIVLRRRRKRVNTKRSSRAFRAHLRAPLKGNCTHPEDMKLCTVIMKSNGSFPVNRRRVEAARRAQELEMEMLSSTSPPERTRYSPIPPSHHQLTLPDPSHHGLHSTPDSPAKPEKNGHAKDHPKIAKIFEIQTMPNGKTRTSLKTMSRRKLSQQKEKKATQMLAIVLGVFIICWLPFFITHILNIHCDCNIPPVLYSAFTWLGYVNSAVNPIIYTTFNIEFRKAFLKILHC
T2 sequence (P34969 whole entry): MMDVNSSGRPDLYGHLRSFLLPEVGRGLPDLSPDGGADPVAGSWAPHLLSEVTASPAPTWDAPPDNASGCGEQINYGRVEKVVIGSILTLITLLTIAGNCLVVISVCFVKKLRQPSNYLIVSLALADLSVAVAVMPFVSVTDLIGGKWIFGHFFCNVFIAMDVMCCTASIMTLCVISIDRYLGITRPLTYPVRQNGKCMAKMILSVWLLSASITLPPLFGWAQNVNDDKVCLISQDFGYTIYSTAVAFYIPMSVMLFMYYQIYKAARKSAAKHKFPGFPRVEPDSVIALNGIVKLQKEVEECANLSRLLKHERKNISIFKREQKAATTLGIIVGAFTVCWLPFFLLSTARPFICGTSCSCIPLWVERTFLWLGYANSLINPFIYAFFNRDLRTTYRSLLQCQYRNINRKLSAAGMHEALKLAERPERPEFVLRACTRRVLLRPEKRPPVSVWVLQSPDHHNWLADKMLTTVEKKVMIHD
Chain of CYP3A4 (P08684 whole entry): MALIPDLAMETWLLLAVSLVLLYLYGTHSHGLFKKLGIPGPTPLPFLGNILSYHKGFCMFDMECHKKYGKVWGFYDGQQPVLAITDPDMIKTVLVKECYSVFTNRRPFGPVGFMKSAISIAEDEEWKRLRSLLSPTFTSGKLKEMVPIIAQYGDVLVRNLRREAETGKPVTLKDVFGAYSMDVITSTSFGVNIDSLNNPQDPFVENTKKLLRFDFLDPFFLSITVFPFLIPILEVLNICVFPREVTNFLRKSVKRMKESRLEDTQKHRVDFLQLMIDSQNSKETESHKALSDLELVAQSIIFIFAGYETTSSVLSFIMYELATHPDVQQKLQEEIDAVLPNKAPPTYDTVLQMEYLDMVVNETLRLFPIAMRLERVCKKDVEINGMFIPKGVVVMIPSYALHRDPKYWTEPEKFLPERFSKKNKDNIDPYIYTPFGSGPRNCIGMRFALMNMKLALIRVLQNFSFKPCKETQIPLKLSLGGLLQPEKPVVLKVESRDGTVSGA

What is called Ki is the dissociation constant of the complex between target and ligand, obtained from inhibition or displacement. The low end stands for a stronger hold on the target, the high end for a looser hold on the target. As usually defined, the inhibition is the share of the control response that was lost under treatment. Consider `CC1(c2ccc(F)cc2)NC(=O)N(CC(O)CN2CCN(c3ccccc3)CC2)C1=O` (centres undefined), for which the Ki is 2730 nM in data set [1], 2910 nM at D(2) dopamine receptor and 223 nM in data set [5]. In addition, the Ratio Ki in the data set listed under Homo sapiens [2] turned out to be 13; in the data set filed under Homo sapiens [3], 12. Besides, the inhibition in [4] stood at 18%. In addition, in data set [6], the Activity result was “inactive”.
The term IC50 denotes the concentration at which inhibition is half-maximal. Low values mean higher potency, high ones lower potency. `CCOc1ccccc1N1CCN(CC(O)CN2C(=O)NC(C)(c3ccc(F)cc3)C2=O)CC1` (centres undefined): the figures for the inhibition constant Ki (in [1]; at D(2) dopamine receptor; in data set [5]) were 98 nM, 127 nM and 10 nM, respectively. Further, the results for the Ratio Ki in the data set listed under Homo sapiens [2] and in the data set filed under Homo sapiens [3] were 13 and 10, respectively. In data set [7], this compound showed an IC50 of 81 nM. Further, the Activity result in data set [6] was “inactive”.
As for `NCCc1c[nH]c2ccc(C(N)=O)cc12`, the Activity result in [6] was “Active”.
Regarding `COc1cccc(N2CCN(CC(O)CN3C(=O)NC(C)(c4ccc(F)cc4)C3=O)CC2)c1` (centres undefined), the Ki in data set [1] turned out to be 2970 nM; on D(2) dopamine receptor, 5190 nM; in [5], 89 nM. The Ratio Ki in the data set filed under Homo sapiens [2] came to 58; in the data set listed under Homo sapiens [3], 33. In data set [7], this compound registered an IC50 of 5940 nM. Besides, the Activity entry in data set [6] was “inactive”.
Consider `CC1(c2ccc(F)cc2)NC(=O)N(CC(O)CN2CCN(c3ccc(F)cc3)CC2)C1=O` (centres undefined), for which the Ki turned out to be 6860 nM in [1], 5640 nM at D(2) dopamine receptor and 837 nM in data set [5]. For the same compound, the Ratio Ki in the data set listed under Homo sapiens [2] came to 7; in the data set listed under Homo sapiens [3] it was 8. Also, the inhibition in data set [4] was found to be 12%. Moreover, the Activity result in data set [6] is “inactive”.
Turning to `CC1(c2ccc(F)cc2)NC(=O)N(CC(O)CN2CCN(C(c3ccccc3)c3ccccc3)CC2)C1=O` (centres undefined), the Ratio Ki in the data set filed under Homo sapiens [2] worked out at 3; in the data set listed under Homo sapiens [3], 71. Also, the half-inhibitory concentration (IC50) in data set [7] came out at 1810 nM. The Activity result in data set [6] is “inactive”.
As to `CC1(c2ccc(F)cc2)NC(=O)N(CC(O)CN2CCN(c3ccccc3Cl)CC2)C1=O` (centres undefined), the inhibition constant Ki in [1] is 397 nM; at D(2) dopamine receptor, 839 nM; in data set [5], 47 nM. For the same compound, the Ratio Ki in the data set listed under Homo sapiens [2] was determined as 18; in the data set listed under Homo sapiens [3] it was 8. Moreover, in [4], the inhibition is 30%. In addition, the Activity result in data set [6] was “inactive”.
For `COc1ccccc1N1CCN(CC(O)CN2C(=O)NC(C)(c3ccc(F)cc3)C2=O)CC1` (centres undefined), at CYP3A4, the activity at 25 µM amounted to 50%.
For `CC1(c2ccc(F)cc2)NC(=O)N(CC(O)CN2CCN(c3ccccc3C#N)CC2)C1=O` (centres undefined), the inhibition constant Ki in [1] turned out to be 319 nM; at D(2) dopamine receptor, 931 nM; in data set [5] it was 14 nM. The Ratio Ki stood at 67 in the data set filed under Homo sapiens [2] and 23 in the data set listed under Homo sapiens [3]. The compound further yielded an IC50 in [7] of 343 nM. Moreover, the Activity entry in [6] was “inactive”.
As to `CC1(c2ccc(F)cc2)NC(=O)N(CC(O)CN2CCN(c3ccccc3O)CC2)C1=O` (centres undefined), in the data set on Liver microsome [8], the Drug metabolism entry is listed as “metabolite_detected”. The Retention_time with Liver microsome [9] is reported as 3.77 min.
For the compound `CC1(c2ccc(F)cc2)NC(=O)N(CC(O)CN2CCN(c3cccc(Cl)c3Cl)CC2)C1=O` (centres undefined), the Ki stood at 59 nM in [1], 302 nM at D(2) dopamine receptor and 17 nM in data set [5]. Further, the Ratio Ki in the data set listed under Homo sapiens [2] is 18; in the data set listed under Homo sapiens [3] it was 3. Half-maximal inhibition in data set [7] (IC50) was put at 1390 nM. In addition, the Activity result in data set [6] is “inactive”.
`CC1(c2ccc(F)cc2)NC(=O)N(CC(O)CN2CCN(c3ccccc3F)CC2)C1=O` (centres undefined): the Ki in data set [1] was 1650 nM; on D(2) dopamine receptor, 1710 nM; in data set [5] it was 234 nM. Also, the Ratio Ki in the data set filed under Homo sapiens [2] and in the data set listed under Homo sapiens [3] was 7 throughout. In addition, the inhibition in data set [4] turned out to be 6%. The Activity entry in data set [6] is “inactive”.
Regarding `Cc1ccc(C)c(N2CCN(CC(O)CN3C(=O)NC(C)(c4ccc(F)cc4)C3=O)CC2)c1` (centres undefined), the Ki is 1300 nM in data set [1], 1810 nM at D(2) dopamine receptor and 56 nM in data set [5]. Further, the Ratio Ki in the data set listed under Homo sapiens [2] amounted to 32; in the data set listed under Homo sapiens [3], 23. The same compound displayed an IC50 in [7] of 1010 nM. For the same compound, the Activity entry in data set [6] was “inactive”.
In the case of `CC1(c2ccc(F)cc2)NC(=O)N(CC(O)CN2CCN(c3ccc(F)cc3F)CC2)C1=O` (centres undefined), the values for the Ki (in data set [1]; at D(2) dopamine receptor; in [5]) were 9170 nM, 6790 nM and 1190 nM, respectively. In addition, the Ratio Ki turned out to be 4 in the data set listed under Homo sapiens [2] and 8 in the data set filed under Homo sapiens [3]. For the same compound, the inhibition in [4] is 9%. In addition, in data set [6], the Activity result is “inactive”.
As for `CC1(c2ccc(F)cc2)NC(=O)N(CC(O)CN2CCN(c3ccc(Cl)cc3)CC2)C1=O` (centres undefined), the figures for the Ki (in data set [1]; at D(2) dopamine receptor; in [5]) were 5300 nM, 4260 nM and 908 nM, respectively. The figures for the Ratio Ki in the data set listed under Homo sapiens [2] and in the data set listed under Homo sapiens [3] were 5 and 6, respectively. The inhibition in [4] came out at 16%. In [6], the Activity result was “inactive”.
Regarding `Cc1ccc(N2CCN(CC(O)CN3C(=O)NC(C)(c4ccc(F)cc4)C3=O)CC2)cc1C` (centres undefined), the Ki in [1] was 1000 nM; at D(2) dopamine receptor it was 2260 nM; in [5], 177 nM. The Ratio Ki in the data set listed under Homo sapiens [2] came out at 13; in the data set filed under Homo sapiens [3], 6. In [4], the inhibition amounted to 19%. Also, the Activity result in data set [6] was “inactive”.
As to `CC1(c2ccc(F)cc2)NC(=O)N(CC(O)CN2CCN(c3ccc(Cl)c(Cl)c3)CC2)C1=O` (centres undefined), the Ki in data set [1] came out at 821 nM; at D(2) dopamine receptor it was 1980 nM; in data set [5], 141 nM. In addition, the Ratio Ki in the data set filed under Homo sapiens [2] came to 14; in the data set filed under Homo sapiens [3], 6. This compound returned an IC50 in data set [7] of 24000 nM. Besides, the Activity entry in data set [6] is “inactive”.
